This assay deals with T1, BMX/ETK (Homo sapiens, UniProt P51813).
T1 sequence (P51813 1-675): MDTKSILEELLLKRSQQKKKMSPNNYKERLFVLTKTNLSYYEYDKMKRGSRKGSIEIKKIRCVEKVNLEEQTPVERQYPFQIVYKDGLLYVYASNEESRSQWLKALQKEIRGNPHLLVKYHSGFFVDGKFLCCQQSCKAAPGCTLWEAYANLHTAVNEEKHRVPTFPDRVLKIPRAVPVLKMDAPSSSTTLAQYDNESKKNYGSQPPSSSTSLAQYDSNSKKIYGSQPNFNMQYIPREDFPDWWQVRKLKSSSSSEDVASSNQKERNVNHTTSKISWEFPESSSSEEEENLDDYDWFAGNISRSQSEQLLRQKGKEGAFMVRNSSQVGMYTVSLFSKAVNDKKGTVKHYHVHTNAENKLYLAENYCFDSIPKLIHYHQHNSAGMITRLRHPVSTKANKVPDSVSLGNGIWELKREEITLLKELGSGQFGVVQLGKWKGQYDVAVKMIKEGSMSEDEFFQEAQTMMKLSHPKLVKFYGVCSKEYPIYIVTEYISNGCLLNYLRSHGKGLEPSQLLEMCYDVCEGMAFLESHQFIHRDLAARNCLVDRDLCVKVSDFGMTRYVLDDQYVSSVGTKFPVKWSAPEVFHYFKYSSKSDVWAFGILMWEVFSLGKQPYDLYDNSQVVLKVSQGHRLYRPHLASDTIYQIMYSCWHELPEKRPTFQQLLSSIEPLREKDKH
In words: Specific kinase IC50 assay. It counts as biochemical. To be noted: 1 μM ATP, 10-dose, duplicate. How it is done: The assays were carried out in the presence of 1 μM ATP and were conducted in a 10-dose format in duplicate with three-fold serial dilutions starting at 10 μM.

With `C=CC(=O)Nc1cccc(-c2nc(Nc3cccc(N4CCOCC4)c3)nc3[nH]ncc23)c1` [Compound 3, N-(3-(6-((3-morpholinophenyl)amino)-1H-pyrazolo[3,4-d]pyrimidin-4-yl)phenyl)acrylamide], the IC50 was found to be 9.26 nM.

The values are drawn from patent US20150252048A1, “SUBSTITUTED N-(3-PYRIMIDIN-4-YL)PHENYL)ACRYLAMIDE ANALOGS AS TYROSINE RECEPTOR KINASE BTK INHIBITORS” (UNIVERSITY OF UTAH RESEARCH FOUNDATION, priority 2012, published 2015).
